The source of these data is US20250100977A1, “MERCAPTOPYRIMIDINE COMPOUNDS THAT INHIBIT NONHOMOLOGOUS END JOINING AND METHODS THEREOF” (INDIAN INSTITUTE OF SCIENCE, priority 2021, published 2025).

Usually inhibition stands for the relative decrease from the control value, in per cent. For orientation: IC50 means the point on the concentration scale where inhibition reaches its midpoint.

One series deals with T1, DNA Ligase IV/XRCC4 (Homo sapiens, UniProt P49917).
T1 construct: made in house; host or cells: bacteria
In words: Inhibition of end joining by purified DNA Ligase IV/XRCC4. The format is biochemical. The note with it: for inhibition at 50 µM: Ligase IV; for Inhibition of end joining compared with control: 200 μM, purified Ligase IV/XRCC4; for Concentration from which inhibition of end joining was seen: dose titration with Ligase IV. The method, then: The compounds of Formula I were evaluated for their specific inhibition activity towards enzyme DNA Ligase IV. DNA Ligase IV/XRCC4 was purified from bacteria using Ni-NTA column (FIG. 2A), and used for evaluation of inhibition of end joining of the compounds (01-41) at 200 μM (FIGS. 2B, C and D). The compounds were incubated with purified Ligase IV/XRCC4 in suitable NHEJ buffer at 25° C. for 30 min, followed by addition of radiolabeled DNA, and further incubation for 1 h at 25° C. Products were purified using phenol: chloroform and run on denaturing PAGE.
Effects of these compounds on NHEJ and Ligase IV mediated joining were evaluated (FIG. 4A-K). The reactions were terminated by EDTA (10 mM), products were purified using phenol/chloroform, precipitated with chilled ethanol and glycogen, and resolved on 8% denaturing PAGE. The gel was dried, exposed, and signal was detected using phosphor Imager FLA9000 (Fuji, Japan), and quantified in MultiGauge software expressed as Photo Stimulated Luminescence Units (PSLU). Inhibition of end joining was reported at 200 μM and 100 μM, respectively for SCR116 and SCR132 (FIGS. 4A, B, C and D), with >50% inhibition at 200 and 100 μM concentrations, respectively. […] FIG. 4K depict the purification profile of Ligase IV and XRCC4. Further FIGS. 4L-M represent inhibition of end joining catalysed by (FIG. 4L) purified Ligase III/XRCCI in presence of SCR116 and SCR132 (50, 100, 200, 500, 1000 μM) and (FIG. 4M) by purified Ligase I in presence of increasing concentrations of SCR116 and SCR132 (10, 50, 100, 200, 500, 1000 μM).

For another series, the system named is Nalm6. As to the kind of experiment: Cytotoxicity (viable cells) in Nalm6. It counts as cell-based. The note with it: Homo sapiens, NALM-6, read-out: IC50 in cancer cell lines, Nalm6. The method, then: (§1) The compounds of the present invention were screened initially in leukemic and cervical cancer cell lines (Table 1). […] In cervical cancer cell line HeLa, IC50 was 5 and 2 μM, respectively for SCR116 and SCR132 (FIG. 5A-B).
(§2) Ligase IV specificity of the compounds of the present invention inside the cells were also determined using Ligase IV knock out (KO) cell line N114 compared to the wild type Nalm6 (Table 2, FIGS. 5C, D, E and F). […] Table 1 showing IC50 of SCR7 derivatives in cancer cell lines Nalm6 and HeLa. IC50 was calculated using GraphPad Prism software from the percentage of viable cells following treatment with the compounds at 48 h. Table 2 showing IC50 of SCR116 and SCR132 in a panel of 16 cancer cell lines.

Another series has as its system Reh. In words: Cytotoxicity in Reh. The format is cell-based. The note with it: 48 h. The method, then:
as §1, §2

In series [1] the test system is Ligase IV knock out (KO) cell line N114. As to the kind of experiment: Cytotoxicity in Ligase IV knock out cell line N114. The format is cell-based. The note with it: Table 2, 48 h, read-out: IC50 in cancer cell lines, N114. On the procedure: as §2
The subject of the next series is HCT116. As to the kind of experiment: Cytotoxicity in HCT116. The note with it: Homo sapiens, HCT-116; Table 2; read-out: IC50 in cancer cell lines, HCT116. It counts as cell-based. The method, then: as §2
In the next series the test system is Molt4. As to the kind of experiment: Cytotoxicity in Molt4. The note with it: Homo sapiens, MOLT-4; Table 2; read-out: IC50 in cancer cell lines, Molt4. The format is cell-based, human. The method, then: as §2
For another series, the system named is MCF7. As to the kind of experiment: Cytotoxicity in MCF7. It counts as cell-based. The note with it: Homo sapiens, MCF7; Table 2; read-out: IC50 in cancer cell lines, MCF7. The method, then: as §2
Another series deals with 53BP1 foci in Nalm6. As to the kind of experiment: 53BP1 foci in Nalm6 cells. The format is cell-based. The note with it: 24 h, SCR116 2, 5 μM, SCR132 1, 2 μM. On the procedure: FIG. 8(A-B) depicts accumulation of DSBs inside cells following treatment with the compounds. A. Representative images for HeLa cells subjected to neutral comet assay following treatment with SCR116 and SCR132 for 24 h. […] FIG. 8C, D are representative images for Nalm6 cells (C) and N114 cells (D) following treatment with SCR116 and SCR132 for 24 h. and FIG. 8E, F are scatter plot depicting quantification of percentage of 53BP1 foci treated with SCR116 (2, 5 μM) and SCR132 (1, 2 μM) in Nalm6 and N114.

Series [2] relates to Dalton's Lymphoma (DLA) tumor. In words: Mice allograft model, Dalton's Lymphoma (DLA). It counts as in vivo. The note with it: for Tumor burden: oral, 15 and 25 mg/kg, pilot. On the procedure: The effect of oral dose of the compounds of the present disclosure on mice Erlich Ascites Carcinoma (EAC) and Dalton's Lymphoma (DLA) tumors were also evaluated (FIGS. 10A-F).
A further series relates to SCC131 derived xenograft. As to the kind of experiment: Mouse xenograft model, SCC131. The note with it: oral cancer SCC131 xenograft; 8 oral doses. The format is in vivo.
A further series relates to SCC084 derived xenograft. As to the kind of experiment: Mouse xenograft model, SCC084. It counts as in vivo. The note with it: oral cancer SCC084 xenograft; 8 oral doses.
Series [3] is described as follows: 10 days dose ranging toxicity study. The note with it: for Hemoglobin, MCHC, total leukocyte count and platelets: after 10 days of dose-ranging study; for Body weight: oral 80, 160 and 320 mg/kg b.wt., male and female, days 1, 8, 15, 22. The format is in vivo, Swiss albino mice. On the procedure: FIG. 12 depicts 10 days dose ranging toxicity studies of SCR116 and SCR132 (A) Body weight analyses of mice on 1, 8, 15 and 22 days after oral administration of low, medium and high concentrations of SCR116 and SCR132 (80, 160 and 320 mg/kg b.wt. respectively) in male. Mice treated with methyl cellulose served as vehicle control; and (B) Body weight analyses of mice on 1, 8, 15 and 22 days after oral administration of SCR116 and SCR132 (80, 160 and 320 mg/kg b.wt. respectively) in female.
FIG. 13 depicts the blood parameters analysis of Swiss albino mice after 10 days of dose-ranging study after treating with SCR116 and SCR132. A. RBC (n=3). B. Hemoglobin (n=3). C. MCHC (n=3). D. Total leukocyte count (n=3). E. Platelet count (n=3) (ns: not significant, *p<0.05: **p<0.005).

[4] abbreviates: Homo sapiens, REH, Table 2, read-out: IC50 in cancer cell lines, Reh.

Where two headings read alike, the source gives them in different places.

T1 sequence (P49917 whole entry): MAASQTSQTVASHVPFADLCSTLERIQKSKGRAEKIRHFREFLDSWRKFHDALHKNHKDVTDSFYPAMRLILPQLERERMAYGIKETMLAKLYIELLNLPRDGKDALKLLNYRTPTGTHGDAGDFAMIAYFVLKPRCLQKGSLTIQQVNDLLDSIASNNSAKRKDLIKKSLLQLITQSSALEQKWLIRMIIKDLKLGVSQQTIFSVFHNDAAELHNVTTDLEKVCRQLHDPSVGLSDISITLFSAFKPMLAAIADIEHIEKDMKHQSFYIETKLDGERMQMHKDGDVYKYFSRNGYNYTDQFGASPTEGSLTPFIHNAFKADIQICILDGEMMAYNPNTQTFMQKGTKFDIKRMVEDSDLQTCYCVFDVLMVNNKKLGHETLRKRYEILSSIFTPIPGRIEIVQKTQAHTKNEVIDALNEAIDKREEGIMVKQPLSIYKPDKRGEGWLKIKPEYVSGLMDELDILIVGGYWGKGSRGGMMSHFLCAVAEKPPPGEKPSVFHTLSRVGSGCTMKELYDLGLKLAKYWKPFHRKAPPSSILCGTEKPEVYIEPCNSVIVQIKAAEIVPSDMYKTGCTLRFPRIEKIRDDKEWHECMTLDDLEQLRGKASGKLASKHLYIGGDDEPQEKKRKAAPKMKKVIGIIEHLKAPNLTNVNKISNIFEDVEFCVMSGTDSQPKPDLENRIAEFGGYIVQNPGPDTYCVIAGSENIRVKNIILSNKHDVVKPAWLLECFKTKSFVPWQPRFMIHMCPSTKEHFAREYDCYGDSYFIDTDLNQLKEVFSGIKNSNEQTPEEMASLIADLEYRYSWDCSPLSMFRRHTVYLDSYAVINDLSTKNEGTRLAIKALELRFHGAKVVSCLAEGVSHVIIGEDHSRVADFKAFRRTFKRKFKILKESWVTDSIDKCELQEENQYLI
T1 sequence (Q13426 whole entry partner): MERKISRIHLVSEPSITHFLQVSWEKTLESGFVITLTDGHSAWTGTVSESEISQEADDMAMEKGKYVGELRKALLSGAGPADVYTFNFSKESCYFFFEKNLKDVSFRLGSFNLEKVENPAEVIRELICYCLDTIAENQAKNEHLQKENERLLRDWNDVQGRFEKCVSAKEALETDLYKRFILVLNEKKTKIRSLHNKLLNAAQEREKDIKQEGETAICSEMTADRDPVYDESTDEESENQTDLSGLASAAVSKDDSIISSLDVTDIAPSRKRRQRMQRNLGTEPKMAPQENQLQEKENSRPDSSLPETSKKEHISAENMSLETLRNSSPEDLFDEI

On DNA Ligase IV/XRCC4, `Nc1nc(S)nc(O)c1/N=C/c1ccc([N+](=O)[O-])s1` [Compound 16, (E)-6-amino-2-mercapto-5-(((5-nitrothiophen-2-yl)methylene)amino)pyrimidin-4-ol] gave an inhibition at 50 µM greater than 50%. The “Inhibition of end joining compared with control” value on DNA Ligase IV/XRCC4 is on record as “significant inhibition of end joining”. For the same compound, the “Concentration from which inhibition of end joining was seen” value at DNA Ligase IV/XRCC4 was determined as 5 µM. Moreover, the IC50 is 3440 nM with Nalm6 (Table 1, 48 h); 3440 nM in the series with Nalm6 (Table 2); 2300 nM with Reh (setting [4]); 2340 nM in the series with Reh (Table 2, listed as SCR116, read-out: IC50 in cancer cell lines, Reh); 14100 nM in series [1]; 5200 nM in the series with HCT116. Moreover, the IC50 worked out at 4890 nM in the series on Molt4 and 10000 nM in the series on MCF7. Also, in the series on Reh, the “Fold difference of IC50 in Reh to that of SCR7” value is greater than 100 fold. Moreover, in the series on 53BP1 foci in Nalm6, the 53BP1 foci result was “significant increase in 53BP1 foci”. Also, the Tumor burden entry in series [2] is recorded as “reduced tumor burden”. For the same compound, the Tumor size result in series [2] (selected oral dose 10 mg/kg) is “significant reduction in tumor size”. In addition, the Tumor volume result in the series with SCC131 derived xenograft and in the series on SCC084 derived xenograft was “significant reduction in tumor volume” in each case. The “Hemoglobin, MCHC, total leukocyte count and platelets” value in series [3] was “no significant difference in hemoglobin, MCHC, total leukocyte count and platelets”. The RBC count result in series [3] (low doses, values still within the normal range) is listed as “significant difference in RBC count”. In series [3], the Body weight result was “no significant change in body weight”.

For the compound `Nc1nc(S)nc(O)c1/N=C/c1sc(Cl)nc1Cl` [Compound 32, (E)-6-amino-5-(((2,4-dichlorothiazol-5-yl)methylene)amino)-2-mercaptopyrimidin-4-ol], the inhibition at 50 µM on DNA Ligase IV/XRCC4 was greater than 50%. For the same compound, at DNA Ligase IV/XRCC4, the “Inhibition of end joining compared with control” value is “significant inhibition of end joining”. Further, the “Concentration from which inhibition of end joining was seen” value at DNA Ligase IV/XRCC4 worked out at 10 µM. Also, the IC50 in the series with Nalm6 (Table 1, 48 h) came to 1790 nM; in the series on Nalm6 (Table 2) it was 1790 nM; in the series with Reh (setting [4]), 690 nM; with Reh (Homo sapiens, REH, read-out: IC50 in Reh cells) it was 690 nM; in [1] it was 10100 nM; in the series on HCT116 it was 2000 nM. The IC50 in the series with Molt4 worked out at 1880 nM; in the series on MCF7, 5000 nM. The “Fold difference of IC50 in Reh to that of SCR7” value with Reh was greater than 250 fold. Also, the 53BP1 foci entry in the series on 53BP1 foci in Nalm6 was “significant increase in 53BP1 foci”. In series [2], the Tumor burden entry was “reduced tumor burden”. Further, in [2] (selected oral dose 15 mg/kg), the Tumor size result is “significant reduction in tumor size”. Further, the Tumor volume result with SCC131 derived xenograft and in the series with SCC084 derived xenograft was “significant reduction in tumor volume” in each case. For the same compound, the “Hemoglobin, MCHC, total leukocyte count and platelets” value in series [3] was “no significant difference in hemoglobin, MCHC, total leukocyte count and platelets”. Moreover, the Body weight result in series [3] is given as “no significant change in body weight”.
